Source: patent publication US10272096B2, “Methods and systems of treating wounds” (priority 2013, dated 2019)

Legend:
U2OS cells = type: cell-based, human
Method: U2OS human osteosarcoma cells were obtained from the American Type Tissue Culture Collection (ATCC, Rockville, Md.). Cells were grown in T-75 flasks (Corning, Fisher, Pittsburgh, Pa.) in a 37° C., 5% CO2/95% air incubator using Dulbecco's Modified Eagle's Medium (DMEM) and supplemented with 10% fetal bovine serum (Mediatach, Manassas, Va.). Cells were trypsinized with TrypLE (Invitrogen Life Technologies, Carsbad, Calif.), seeded into 6-well or 96-well plates (Corning, Fisher, Pittsburgh, Pa.) and grown to confluence.
Cells were exposed to LLLT for 30 min and 1 h later received a single treatment of 5 μM NO-Cbi.
The scratch wound closure assay has been previously described (see Spitler et al., Nitrosyl-cobinamide (NO-Cbi), a new nitric oxide donor, improves wound healing through cGMP/cGMP-dependent protein kinase, Cell Signal 2013, 25(12):2374-2382). Briefly 600-700 μm wide single line scratches were mechanically generated in a cell monolayer by a 200 μl plastic tip across the length of the well. Cells from both edges of the wound migrated into the open area, which was measured at 24 h. The change in area was quantified using a custom Mat Lab script. The wound closure rate was determined by plotting changes in the wound area as a function of time.

Erk1/2 = experiment: Western blot analysis of phospho-Erk1/2 in U2OS cells; type: cell-based, human
Method: Cells were lysed and harvested 10 min after LLLT treatment in Laemmli buffer heated to 100° C. (BioRad, Hercules, Calif.), and lysates were sonicated and resolved on SDS-PAGE gels. The proteins were transferred to a nitrocellulose membrane (GE Healthcare Life Sciences, Pittsburgh) and blocked for 1 h with Pierce Protein-Free Blocking buffer (Thermo Scientific, Rockford, Ill.). They were incubated overnight with antibodies for phospho-ERK1/2(Thr202/Tyr203) at 1:10,000 in TBS/5% BSA (Cell Signaling Technology). Membranes were then incubated with an anti-rabbit-HRP antibody at 1:2000 for 1 h and developed using a luminol-based chemiluminescent substrate.

A-549 cells = experiment: Mechanical scratch wound assay in A-549 cell monolayer; type: cell-based
Method: (A) Mechanical scratch wounds were generated in a monolayer of A-549 cells, and 30 hours later, the area of the wound was evaluated by custom computer-based software. At 0, 4, 9, and 24 hour post wounding, cells received fresh medium with 5 uM of NO-Cbl, Deta-NONOate, sodium nitroprusside (SNP), or fresh medium alone. (B) The normalized average wound area was determined by dividing the final wound area by the initial wound area and averaging replicates. Data represent the mean+/−SEM of at least 3 separate experiments with an n=12 in each experiment.

[1] = tested on: lung epithelial cells, primary human lung fibroblasts, cancer cell model; experiment: In vitro wound healing in several different cell systems; type: cell-based
Text: . The inventors established this optimal dose range in order to provide a reasonable dose for actual treatment of airway injury. Mechanistically, the inventors determined that improved wound healing was from increased cell migration and not cell proliferation (division). […]

Question: Which “wound healing (normalized wound area at 24 h)” value (U2OS cells) does the source give for nitrosyl-cobinamide [NO-Cbi] here?
Answer: Its value is “enhance wound healing”.

Question: What about the “wound healing, combination with LLLT” value (U2OS cells) of the same substance?
Answer: Its value is “markedly enhanced wound healing compared to either treatment alone”.

Question: What about the “Erk1/2 activation (phosphorylation)” value (Erk1/2) of the same substance?
Answer: Its value is “increased Erk1/2 activation”.

Question: And the “Erk1/2 activation, combination with LLLT” value (Erk1/2)?
Answer: Its value is “same degree of Erk1/2 activation as NO-Cbi alone”.

Question: And the “effectiveness on a molar basis compared with other NO donors” value (A-549 cells)?
Answer: The value was “more effective than two other NO donors”.

Question: And the “wound healing and migration (normalized wound area)” value (A-549 cells)?
Answer: Its value is “increases wound healing and migration”.

Question: And the “in vitro wound healing” value [1]?
Answer: The value was “improved in vitro wound healing”.
